Values quoted from earlier work in publication PMC13064256, “Integrative preclinical strategy for pharmacokinetic profiling and candidate selection of 3-hydroxypropanamidines: a promising antimalarial class” (Malaria Journal, 2026).

Parameters: method as in PMID 31898492

## CCCCN(CCCC)CCC(O)c1cc2c(Cl)cc(Cl)cc2c2cc(C(F)(F)F)ccc12 (stereo not shown) [halofantrine]
  Clint in HLMs: 26.9 µL/min/mg
